In brackets after ≈: the same amount, converted by molar mass.
What was measured:
S. aureus RN4220/pMS520 = assay: MIC, agar plate dilution method, S. aureus RN4220/pMS520; format: cell-based, Staphylococcus aureus; details: for minimal inhibitory concentration (MIC): S. aureus RN4220/pMS520, MRSA; for MIC: Staphylococcus aureus, MRSA, read-out: minimal inhibitory concentration (MIC), S. aureus RN4220/pMS520, MRSA
Experimental: (§1) As for the representative compounds of a new aminoglycoside antibiotic of the present invention described in Examples, the minimal inhibitory concentration (MIC, μg/mL) was measured for various assay strains of bacteria using an agar plate dilution method in accordance with the method described in the Japan Society of Chemotherapy.

S. aureus MF490 = assay: MIC, agar plate dilution method, S. aureus MF490; format: cell-based, Staphylococcus aureus; details: for minimal inhibitory concentration (MIC): S. aureus MF490, MRSA; for MIC: Staphylococcus aureus, MRSA, read-out: minimal inhibitory concentration (MIC)
Experimental: as §1

S. marcescens TH-0447 = assay: MIC, agar plate dilution method, S. marcescens TH-0447; format: cell-based, Serratia marcescens; details: for minimal inhibitory concentration (MIC): S. marcescens TH-0447, AMK-resistant; for MIC: Serratia marcescens, TH0447, S. marcescens TH-0447, AMK-resistant, read-out: minimal inhibitory concentration (MIC)
Experimental: as §1

P. aeruginosa PAO1/GN315 = assay: MIC, agar plate dilution method, P. aeruginosa PAO1/GN315; format: cell-based, Pseudomonas aeruginosa; details: for minimal inhibitory concentration (MIC): P. aeruginosa PAO1/GN315, AMK-resistant; for MIC: Pseudomonas aeruginosa, read-out: minimal inhibitory concentration (MIC), P. aeruginosa PAO1/GN315, AMK-resistant
Experimental: as §1

[1] = system: A. baumannii ATCC BAA-1710; assay: MIC, agar plate dilution method, A. baumannii ATCC BAA-1710; format: cell-based, Acinetobacter baumannii; details: for minimal inhibitory concentration (MIC): A. baumannii ATCC BAA-1710, MDRA; for MIC: Acinetobacter baumannii, ATCCBAA1710, A. baumannii ATCC BAA-1710, MDRA, read-out: minimal inhibitory concentration (MIC)
Experimental: as §1

E. faecium ATCC19434 = assay: MIC, agar plate dilution method, E. faecium ATCC19434; format: cell-based, Enterococcus faecium; details: for minimal inhibitory concentration (MIC): E. faecium ATCC19434; for MIC: Enterococcus faecium, ATCC19434, E. faecium ATCC19434, read-out: minimal inhibitory concentration (MIC)
Experimental: as §1

P. aeruginosa MSC17707 = assay: MIC, agar plate dilution method, P. aeruginosa MSC17707; format: cell-based, Pseudomonas aeruginosa; details: for minimal inhibitory concentration (MIC): P. aeruginosa MSC17707, AMK-resistant; for MIC: Pseudomonas aeruginosa, MSC17707, P. aeruginosa MSC17707, AMK-resistant, read-out: minimal inhibitory concentration (MIC)
Experimental: as §1

S. aureus RN4220 = assay: MIC, agar plate dilution method, S. aureus RN4220; format: cell-based, Staphylococcus aureus; details: for minimal inhibitory concentration (MIC): S. aureus RN4220, Sensitive bacterium; for MIC: Staphylococcus aureus, RN4220, S. aureus RN4220, Sensitive bacterium, read-out: minimal inhibitory concentration (MIC)
Experimental: as §1

[2] = system: K. pneumoniae ATCC BAA-1705; assay: MIC, agar plate dilution method, K. pneumoniae ATCC BAA-1705; format: cell-based, Klebsiella pneumoniae; details: for minimal inhibitory concentration (MIC): K. pneumoniae ATCC BAA-1705, KPC-producing strain; for MIC: Klebsiella pneumoniae, ATCCBAA1705, K. pneumoniae ATCC BAA-1705, KPC-producing strain, read-out: minimal inhibitory concentration (MIC)
Experimental: as §1

S. marcescens GN6944 = assay: MIC, agar plate dilution method, S. marcescens GN6944; format: cell-based, Serratia marcescens; details: S. marcescens GN6944, GM-resistant; for MIC: Serratia marcescens, read-out: minimal inhibitory concentration (MIC)
Experimental: as §1

P. aeruginosa PAO1 = assay: MIC, agar plate dilution method, P. aeruginosa PAO1; format: cell-based, Pseudomonas aeruginosa; details: for minimal inhibitory concentration (MIC): P. aeruginosa PAO1, Sensitive bacterium; for MIC: Pseudomonas aeruginosa, PAO1, P. aeruginosa PAO1, Sensitive bacterium, read-out: minimal inhibitory concentration (MIC)
Experimental: as §1

P. aeruginosa MSC01035 = assay: MIC, agar plate dilution method, P. aeruginosa MSC01035; format: cell-based, Pseudomonas aeruginosa; details: P. aeruginosa MSC01035, ABK-resistant; for MIC: Pseudomonas aeruginosa, read-out: minimal inhibitory concentration (MIC)
Experimental: as §1

E. coli JM109/pMW218 = assay: MIC, agar plate dilution method, E. coli JM109/pMW218; format: cell-based, Escherichia coli; details: for minimal inhibitory concentration (MIC): E. coli JM109/pMW218, Sensitive bacterium; for MIC: Escherichia coli, JM109/PMW218, E. coli JM109/pMW218, Sensitive bacterium, read-out: minimal inhibitory concentration (MIC)
Experimental: as §1

[3] = system: K. pneumoniae ATCC BAA-2146; assay: MIC, agar plate dilution method, K. pneumoniae ATCC BAA-2146; format: cell-based, Klebsiella pneumoniae; details: for minimal inhibitory concentration (MIC): K. pneumoniae ATCC BAA-2146, NDM-producing strain; for MIC: Klebsiella pneumoniae, ATCCBAA2146, K. pneumoniae ATCC BAA-2146, NDM-producing strain, read-out: minimal inhibitory concentration (MIC)
Experimental: as §1

| SMILES | minimal inhibitory concentration (MIC) (S. aureus RN4220/pMS520) [µg/mL] | minimal inhibitory concentration (MIC) (S. aureus MF490) [µg/mL] | minimal inhibitory concentration (MIC) (S. marcescens TH-0447) [µg/mL] | minimal inhibitory concentration (MIC) (P. aeruginosa PAO1/GN315) [µg/mL] | minimal inhibitory concentration (MIC) [1] [µg/mL] | minimal inhibitory concentration (MIC) (E. faecium ATCC19434) [µg/mL] | MIC (S. aureus RN4220/pMS520) [µg/mL] | MIC (S. aureus MF490) [µg/mL] | MIC (S. marcescens TH-0447) [µg/mL] | MIC (P. aeruginosa PAO1/GN315) [µg/mL] | MIC [1] [µg/mL] | MIC (E. faecium ATCC19434) [µg/mL] | MIC (P. aeruginosa MSC17707) [µg/mL] | MIC (S. aureus RN4220) [µg/mL] | MIC [2] [µg/mL] | MIC (S. marcescens GN6944) [µg/mL] | MIC (P. aeruginosa PAO1) [µg/mL] | MIC (P. aeruginosa MSC01035) [µg/mL] | MIC (E. coli JM109/pMW218) [µg/mL] | MIC [3] [µg/mL] | also measured |
| --- | --- | --- | --- | --- | --- | --- | --- | --- | --- | --- | --- | --- | --- | --- | --- | --- | --- | --- | --- | --- | --- |
| CNC1C(CO)OC(OC2OC3CC(N)C(OC4C(N)CC(N)C(O)C4O)OC3C(O)C2NC)C(O)C1O (stereo not drawn) [Compound A4-a, 4″-N-methylapramycin] | 4 (≈ 7.23 µM) | 16 (≈ 28.9 µM) | 8 (≈ 14.5 µM) | 8 (≈ 14.5 µM) | 16 (≈ 28.9 µM) | 32 (≈ 57.8 µM) |  |  |  |  |  |  |  |  |  |  |  |  |  |  | minimal inhibitory concentration (MIC) (P. aeruginosa MSC17707): 8 µg/mL (≈ 14.5 µM); minimal inhibitory concentration (MIC) (S. aureus RN4220): 4 µg/mL (≈ 7.23 µM); minimal inhibitory concentration (MIC) [2]: 2 µg/mL (≈ 3.61 µM); minimal inhibitory concentration (MIC) (S. marcescens GN6944): 8 µg/mL (≈ 14.5 µM); minimal inhibitory concentration (MIC) (P. aeruginosa PAO1): 8 µg/mL (≈ 14.5 µM); minimal inhibitory concentration (MIC) (P. aeruginosa MSC01035): 8 µg/mL (≈ 14.5 µM); minimal inhibitory concentration (MIC) (E. coli JM109/pMW218): 2 µg/mL (≈ 3.61 µM); minimal inhibitory concentration (MIC) [3]: 2 µg/mL (≈ 3.61 µM) |
| CNC1C(O[C@H]2OC(CO)[C@@H](NCCCN)[C@H](O)C2O)O[C@H]2CC(N)[C@@H](O[C@@H]3C(N)C[C@@H](N)C(O)[C@H]3O)OC2C1O (stereo partly drawn) [Compound A4-b, 4″-N-(3-aminopropyl)apramycin] |  |  |  |  |  |  | 4 (≈ 6.7 µM) | 8 (≈ 13.4 µM) | 8 (≈ 13.4 µM) | 8 (≈ 13.4 µM) | 8 (≈ 13.4 µM) | 16 (≈ 26.8 µM) | 8 (≈ 13.4 µM) | 4 (≈ 6.7 µM) | 2 (≈ 3.35 µM) | 8 (≈ 13.4 µM) | 4 (≈ 6.7 µM) | 8 (≈ 13.4 µM) | 2 (≈ 3.35 µM) | 2 (≈ 3.35 µM) |  |
| CNC1C(OC2OC(CO)C(NCC3(N)CCCC3)C(O)C2O)OC2CC(N)C(OC3C(N)CC(N)C(O)C3O)OC2C1O (stereo not drawn) [Compound A4-c, 4″-N-((1-aminocyclopentyl)methyl)apramycin] | 4 (≈ 6.28 µM) | 16 (≈ 25.1 µM) | 8 (≈ 12.6 µM) | 16 (≈ 25.1 µM) | 32 (≈ 50.3 µM) | 16 (≈ 25.1 µM) |  |  |  |  |  |  |  |  |  |  |  |  |  |  | minimal inhibitory concentration (MIC) (P. aeruginosa MSC17707): 32 µg/mL (≈ 50.3 µM); minimal inhibitory concentration (MIC) (S. aureus RN4220): 4 µg/mL (≈ 6.28 µM); minimal inhibitory concentration (MIC) [2]: 1 µg/mL (≈ 1.57 µM); minimal inhibitory concentration (MIC) (S. marcescens GN6944): 8 µg/mL (≈ 12.6 µM); minimal inhibitory concentration (MIC) (P. aeruginosa PAO1): 16 µg/mL (≈ 25.1 µM); minimal inhibitory concentration (MIC) (P. aeruginosa MSC01035): 16 µg/mL (≈ 25.1 µM); minimal inhibitory concentration (MIC) (E. coli JM109/pMW218): 1 µg/mL (≈ 1.57 µM); minimal inhibitory concentration (MIC) [3]: 1 µg/mL (≈ 1.57 µM) |
| CNC1C(O[C@H]2OC(CO)[C@@H](NC(CN)CN)[C@H](O)C2O)O[C@H]2CC(N)[C@@H](O[C@@H]3C(N)C[C@@H](N)C(O)[C@H]3O)OC2C1O (stereo partly drawn) [Compound A4-d, 4″-N-(1,3-diaminopropan-2-yl)apramycin] |  |  |  |  |  |  | 2 (≈ 3.27 µM) | 4 (≈ 6.54 µM) | 8 (≈ 13.1 µM) | 4 (≈ 6.54 µM) | 4 (≈ 6.54 µM) | 8 (≈ 13.1 µM) | 4 (≈ 6.54 µM) | 2 (≈ 3.27 µM) | 2 (≈ 3.27 µM) | 4 (≈ 6.54 µM) | 4 (≈ 6.54 µM) | 8 (≈ 13.1 µM) | 1 (≈ 1.63 µM) | 1 (≈ 1.63 µM) |  |
| CNC1C(O[C@H]2OC(CO)[C@@H](N(CCN)CCN)[C@H](O)C2O)O[C@H]2CC(N)[C@@H](O[C@@H]3C(N)C[C@@H](N)C(O)[C@H]3O)OC2C1O (stereo partly drawn) [Compound A4-e, 4″-N,N-bis(2-aminoethyl)apramycin] |  |  |  |  |  |  | 2 (≈ 3.2 µM) | 4 (≈ 6.39 µM) | 8 (≈ 12.8 µM) | 4 (≈ 6.39 µM) | 4 (≈ 6.39 µM) | 16 (≈ 25.6 µM) | 8 (≈ 12.8 µM) | 2 (≈ 3.2 µM) | 2 (≈ 3.2 µM) | 8 (≈ 12.8 µM) | 4 (≈ 6.39 µM) | 8 (≈ 12.8 µM) | 1 (≈ 1.6 µM) | 2 (≈ 3.2 µM) |  |
| CNC1C(O[C@H]2OC(CO)[C@@H](N[C@H]3CC[C@@H](N)CC3)[C@H](O)C2O)O[C@H]2CC(N)[C@@H](O[C@@H]3C(N)C[C@@H](N)C(O)[C@H]3O)OC2C1O (stereo partly drawn) [Compound A4-f, 4″-N-(cis-1,4-4-aminocyclohexyl)apramycin] |  |  |  |  |  |  | 4 (≈ 6.28 µM) | 8 (≈ 12.6 µM) | 16 (≈ 25.1 µM) | 16 (≈ 25.1 µM) | 32 (≈ 50.3 µM) | 32 (≈ 50.3 µM) | 16 (≈ 25.1 µM) | 4 (≈ 6.28 µM) | 2 (≈ 3.14 µM) | 8 (≈ 12.6 µM) | 16 (≈ 25.1 µM) | 16 (≈ 25.1 µM) | 1 (≈ 1.57 µM) | 1 (≈ 1.57 µM) |  |

— US11135234B2, “Effective aminoglycoside antibiotic for multidrug-resistant bacteria” (MICROBIAL CHEMISTRY RESEARCH FOUNDATION, priority 2015, dated 2021)
